Experimental data as given in BindingDB's records for doi:10.1021/jm101621u (University of Utah, 2011).
Square brackets hold non-standard residues; d marks the D form. Peptide text beside a SMILES is read from it. d(aThr) = C[C@@H](O)[C@@H](N)C(=O)O; Dhb = C/C=C(\N)C(=O)O

Target: Transient receptor potential cation channel subfamily V member 1 (Homo sapiens, UniProt Q8NER1)
Test: Antagonist activity at human TRPV1 expressed in HEK293 cell assessed as inhibition of capsaicin-induced calcium flux by fluorometric analysis

Chain of Transient receptor potential cation channel subfamily V member 1 (Q8NER1 whole entry): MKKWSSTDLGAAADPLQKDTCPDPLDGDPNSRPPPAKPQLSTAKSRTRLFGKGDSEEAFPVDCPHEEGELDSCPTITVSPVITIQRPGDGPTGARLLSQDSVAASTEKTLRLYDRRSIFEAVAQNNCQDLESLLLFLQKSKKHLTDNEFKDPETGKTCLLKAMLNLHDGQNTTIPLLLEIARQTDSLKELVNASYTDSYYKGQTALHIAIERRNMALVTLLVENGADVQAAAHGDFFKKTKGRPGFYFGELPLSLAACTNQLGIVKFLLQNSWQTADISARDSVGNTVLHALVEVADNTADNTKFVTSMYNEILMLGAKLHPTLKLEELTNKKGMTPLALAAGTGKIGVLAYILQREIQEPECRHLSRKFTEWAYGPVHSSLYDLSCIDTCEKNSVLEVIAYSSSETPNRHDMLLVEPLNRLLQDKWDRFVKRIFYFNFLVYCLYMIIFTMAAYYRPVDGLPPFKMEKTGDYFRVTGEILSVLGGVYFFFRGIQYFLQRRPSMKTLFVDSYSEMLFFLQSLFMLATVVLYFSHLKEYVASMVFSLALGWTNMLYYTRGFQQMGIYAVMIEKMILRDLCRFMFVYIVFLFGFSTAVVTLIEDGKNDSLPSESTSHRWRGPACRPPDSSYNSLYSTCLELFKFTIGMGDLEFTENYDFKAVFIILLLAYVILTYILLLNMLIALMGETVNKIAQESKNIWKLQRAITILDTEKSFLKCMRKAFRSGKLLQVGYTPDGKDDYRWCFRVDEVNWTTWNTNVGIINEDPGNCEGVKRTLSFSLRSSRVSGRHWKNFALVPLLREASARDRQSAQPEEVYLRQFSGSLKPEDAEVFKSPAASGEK

`C/C=C(\NC(=O)[C@H](C)NC(=O)[C@@H](NC(=O)[C@H](NC(=O)[C@H](Cc1ccccc1)NC(=O)[C@@H](CC(C)C)NC(=O)[C@@H](Cc1ccccc1)NC(C)=O)[C@@H](C)O)C(C)C)C(=O)O` [Nobilamide A] (Ac-[dF][dL]F[d(aThr)]VA[Dhb]-OH) was tested, and the IC50 was 1660 µM.
